Data: patent publication US8148367B2 (Takeda Pharmaceutical Company Limited, priority 2008, dated 2012)

target: T1, Recombinant human renin (Homo sapiens, UniProt P00797); test: In vitro enzymatic activity assay of renin inhibitors (fluorescence, QXL520/HiLyteFluo488 peptide substrate); type: biochemical; conditions: recombinant human renin 3 nM, 1 μM substrate, pre-incubated 10 minutes at 37° C., incubation one hour, pH 7.4, 5% DMSO; read-out: IC50 of Exemplified Compounds Against Renin
T1 construct: isolate the active form (residues 67-406); made in house; host or cells: FreeStyle 293-F cells, transient expression of pcDNA3.1(+)/hREN
T1 sequence (P00797 67-406): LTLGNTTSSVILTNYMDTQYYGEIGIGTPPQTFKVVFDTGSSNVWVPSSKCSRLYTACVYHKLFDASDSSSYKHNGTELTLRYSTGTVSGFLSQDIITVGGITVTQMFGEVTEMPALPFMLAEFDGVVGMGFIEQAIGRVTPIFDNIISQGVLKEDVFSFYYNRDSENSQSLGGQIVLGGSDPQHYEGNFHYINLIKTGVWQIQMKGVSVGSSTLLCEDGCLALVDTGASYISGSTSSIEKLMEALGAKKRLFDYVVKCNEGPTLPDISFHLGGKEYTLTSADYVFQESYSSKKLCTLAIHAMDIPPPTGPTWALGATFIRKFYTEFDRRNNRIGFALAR

`COc1cccc(NC(=O)NCCn2c(C(=O)N3CCNCC3)c(-c3ccccc3)n(-c3ccccc3C)c2=O)c1` [Example 215, 1-(3-Methoxyphenyl)-3-(2-(2-oxo-4-phenyl-5-(piperazine-1-carbonyl)-3-o-tolyl-2,3-dihydro-1H-imidazol-1-yl)ethyl)urea] and `COc1cccc(NC(=O)NCCCn2c(C(=O)N3CCNCC3)c(-c3ccccc3)n(-c3ccccc3C)c2=O)c1` [Example 226, 1-(3-Methoxyphenyl)-3-(3-(2-oxo-4-phenyl-5-(piperazine-1-carbonyl)-3-o-tolyl-2,3-dihydro-1H-imidazol-1-yl)propyl)urea] fall in the same range of IC50: 0.1 to 0.5 µM for the first, 0.1 to 0.5 µM for the second.

`Cc1ccccc1-n1c(-c2ccccc2)c(C(=O)N2CCNCC2)n(CCNC(=O)NC(C)C)c1=O` [Example 216, 1-Isopropyl-3-(2-(2-oxo-4-phenyl-5-(piperazine-1-carbonyl)-3-o-tolyl-2,3-dihydro-1H-imidazol-1-yl)ethyl)urea] and `Cc1ccccc1-n1c(-c2ccccc2)c(C(=O)N2CCNCC2)n(CCCNC(=O)NC(C)C)c1=O` [Example 227, 1-Isopropyl-3-(3-(2-oxo-4-phenyl-5-(piperazine-1-carbonyl)-3-o-tolyl-2,3-dihydro-1H-imidazol-1-yl)propyl)urea] cannot be ordered by IC50: over 1 µM for the first, over 1 µM for the second.

`Cc1ccccc1-n1c(-c2ccccc2)c(C(=O)N2CCNCC2)n(CCCNS(=O)(=O)c2ccccc2Cl)c1=O` [Example 217, 2-Chloro-N-(3-(2-oxo-4-phenyl-5-(piperazine-1-carbonyl)-3-o-tolyl-2,3-dihydro-1H-imidazol-1-yl)propyl)benzenesulfonamide] and `Cc1ccccc1-n1c(-c2ccccc2)c(C(=O)N2CCNCC2)n(CCCNS(=O)(=O)c2ccccc2C)c1=O` [Example 220, 2-Methyl-N-(3-(2-oxo-4-phenyl-5-(piperazine-1-carbonyl)-3-o-tolyl-2,3-dihydro-1H-imidazol-1-yl)propyl)benzenesulfonamide] cannot be ordered by IC50: under 0.1 µM for the first, under 0.1 µM for the second.

`Cc1ccccc1-n1c(-c2ccccc2)c(C(=O)N2CCNCC2)n(CCCNS(=O)(=O)c2cccc(Cl)c2)c1=O` [Example 218, 3-Chloro-N-(3-(2-oxo-4-phenyl-5-(piperazine-1-carbonyl)-3-o-tolyl-2,3-dihydro-1H-imidazol-1-yl)propyl)benzenesulfonamide] and `COc1cccc(S(=O)(=O)NCCCn2c(C(=O)N3CCNCC3)c(-c3ccccc3)n(-c3ccccc3C)c2=O)c1` [Example 221, 3-Methoxy-N-(3-(2-oxo-4-phenyl-5-(piperazine-1-carbonyl)-3-o-tolyl-2,3-dihydro-1H-imidazol-1-yl)propyl)benzenesulfonamide] fall in the same range of IC50: 0.1 to 0.5 µM for the first, 0.1 to 0.5 µM for the second.

`Cc1ccccc1-n1c(-c2ccccc2)c(C(=O)N2CCNCC2)n(CCCNS(=O)(=O)c2ccc(Cl)cc2)c1=O` [Example 219, 4-Chloro-N-(3-(2-oxo-4-phenyl-5-(piperazine-1-carbonyl)-3-o-tolyl-2,3-dihydro-1H-imidazol-1-yl)propyl)benzenesulfonamide] and `COc1ccc(S(=O)(=O)NCCCn2c(C(=O)N3CCNCC3)c(-c3ccccc3)n(-c3ccccc3C)c2=O)cc1` [Example 222, 4-Methoxy-N-(3-(2-oxo-4-phenyl-5-(piperazine-1-carbonyl)-3-o-tolyl-2,3-dihydro-1H-imidazol-1-yl)propyl)benzenesulfonamide] fall in the same range of IC50: 0.1 to 0.5 µM for the first, 0.1 to 0.5 µM for the second.

First: Cc1ccccc1-n1c(-c2ccccc2)c(C(=O)N2CCNCC2)n(CCCNC(=O)Nc2ccccc2)c1=O [Example 223, 1-(3-(2-Oxo-4-phenyl-5-(piperazine-1-carbonyl)-3-o-tolyl-2,3-dihydro-1H-imidazol-1-yl)propyl)-3-phenylurea]
Second: Cc1ccccc1-n1c(-c2ccccc2)c(C(=O)N2CCNCC2)n(CCCNC(=O)Nc2ccccc2Cl)c1=O [Example 224, 1-(2-Chlorophenyl)-3-(3-(2-oxo-4-phenyl-5-(piperazine-1-carbonyl)-3-o-tolyl-2,3-dihydro-1H-imidazol-1-yl)propyl)urea]
The IC50 of the first is higher: 0.5 to 1 µM for the first, 0.1 to 0.5 µM for the second.

First: COc1ccccc1NC(=O)NCCCn1c(C(=O)N2CCNCC2)c(-c2ccccc2)n(-c2ccccc2C)c1=O [Example 225, 1-(2-Methoxyphenyl)-3-(3-(2-oxo-4-phenyl-5-(piperazine-1-carbonyl)-3-o-tolyl-2,3-dihydro-1H-imidazol-1-yl)propyl)urea]
Second: COc1ccccc1C(=O)NCCn1c(C(=O)N2CCNCC2)c(-c2ccccc2)n(-c2ccccc2C)c1=O [Example 234, 2-Methoxy-N-(2-(2-oxo-4-phenyl-5-(piperazine-1-carbonyl)-3-o-tolyl-2,3-dihydro-1H-imidazol-1-yl)ethyl)benzamide]
The IC50 of the first is lower: 0.1 to 0.5 µM for the first, 0.5 to 1 µM for the second.

`COc1ccc(NC(=O)NCCn2c(C(=O)N3CCNCC3)c(-c3ccccc3)n(-c3ccccc3C)c2=O)cc1` [Example 228, 1-(4-Methoxyphenyl)-3-(2-(2-oxo-4-phenyl-5-(piperazine-1-carbonyl)-3-o-tolyl-2,3-dihydro-1H-imidazol-1-yl)ethyl)urea] and `COc1ccc(C(=O)NCCn2c(C(=O)N3CCNCC3)c(-c3ccccc3)n(-c3ccccc3C)c2=O)cc1` [Example 235, 4-Methoxy-N-(2-(2-oxo-4-phenyl-5-(piperazine-1-carbonyl)-3-o-tolyl-2,3-dihydro-1H-imidazol-1-yl)ethyl)benzamide] fall in the same range of IC50: 0.5 to 1 µM for the first, 0.5 to 1 µM for the second.

First: Cc1ccccc1-n1c(-c2ccccc2)c(C(=O)N2CCNCC2)n(CCCNS(=O)(=O)c2ccccc2F)c1=O [Example 229, 2-Fluoro-N-(3-(2-oxo-4-phenyl-5-(piperazine-1-carbonyl)-3-o-tolyl-2,3-dihydro-1H-imidazol-1-yl)propyl)benzenesulfonamide]
Second: Cc1ccccc1-n1c(-c2ccccc2)c(C(=O)N2CCNCC2)n(CCCNC(=O)c2ccccc2F)c1=O [Example 240, 2-Fluoro-N-(3-(2-oxo-4-phenyl-5-(piperazine-1-carbonyl)-3-o-tolyl-2,3-dihydro-1H-imidazol-1-yl)propyl)benzamide]
The IC50 of the first is lower: 0.5 to 1 µM for the first, over 1 µM for the second.

`Cc1ccccc1-n1c(-c2ccccc2)c(C(=O)N2CCNCC2)n(CCNC(=O)c2ccccc2F)c1=O` [Example 230, 2-Fluoro-N-(2-(2-oxo-4-phenyl-5-(piperazine-1-carbonyl)-3-o-tolyl-2,3-dihydro-1H-imidazol-1-yl)ethyl)benzamide] and `Cc1ccccc1-n1c(-c2ccccc2)c(C(=O)N2CCNCC2)n(CCNC(=O)c2ccccc2Cl)c1=O` [Example 231, 2-Chloro-N-(2-(2-oxo-4-phenyl-5-(piperazine-1-carbonyl)-3-o-tolyl-2,3-dihydro-1H-imidazol-1-yl)ethyl)benzamide] cannot be ordered by IC50: over 1 µM for the first, over 1 µM for the second.

First: Cc1ccccc1-n1c(-c2ccccc2)c(C(=O)N2CCNCC2)n(CCNC(=O)c2cccc(Cl)c2)c1=O [Example 232, 3-Chloro-N-(2-(2-oxo-4-phenyl-5-(piperazine-1-carbonyl)-3-o-tolyl-2,3-dihydro-1H-imidazol-1-yl)ethyl)benzamide]
Second: Cc1ccccc1-n1c(-c2ccccc2)c(C(=O)N2CCNCC2)n(CCCNC(=O)c2cccc(Cl)c2)c1=O [Example 242, 3-Chloro-N-(3-(2-oxo-4-phenyl-5-(piperazine-1-carbonyl)-3-o-tolyl-2,3-dihydro-1H-imidazol-1-yl)propyl)benzamide]
The IC50 of the first is lower: 0.5 to 1 µM for the first, over 1 µM for the second. The first is the more potent here.

Compared with `Cc1ccccc1-n1c(-c2ccccc2)c(C(=O)N2CCNCC2)n(CCNC(=O)c2ccc(Cl)cc2)c1=O` [Example 233, 4-Chloro-N-(2-(2-oxo-4-phenyl-5-(piperazine-1-carbonyl)-3-o-tolyl-2,3-dihydro-1H-imidazol-1-yl)ethyl)benzamide], `Cc1ccccc1-n1c(-c2ccccc2)c(C(=O)N2CCNCC2)n(CCCNC(=O)c2ccc(Cl)cc2)c1=O` [Example 243, 4-Chloro-N-(3-(2-oxo-4-phenyl-5-(piperazine-1-carbonyl)-3-o-tolyl-2,3-dihydro-1H-imidazol-1-yl)propyl)benzamide] is higher in IC50: 0.5 to 1 µM for the first, over 1 µM for the second.

`Cc1ccccc1-n1c(-c2ccccc2)c(C(=O)N2CCNCC2)n(CCNC(=O)C(C)C)c1=O` [Example 236, N-(2-(2-oxo-4-phenyl-5-(piperazine-1-carbonyl)-3-o-tolyl-2,3-dihydro-1H-imidazol-1-yl)ethyl)isobutyramide] and `Cc1ccccc1-n1c(-c2ccccc2)c(C(=O)N2CCNCC2)n(CCNC(=O)CC(C)C)c1=O` [Example 238, 3-Methyl-N-(2-(2-oxo-4-phenyl-5-(piperazine-1-carbonyl)-3-o-tolyl-2,3-dihydro-1H-imidazol-1-yl)ethyl)butanamide] cannot be ordered by IC50: over 1 µM for the first, over 1 µM for the second.

`Cc1ccccc1-n1c(-c2ccccc2)c(C(=O)N2CCNCC2)n(CCNC(=O)C2CCCCC2)c1=O` [Example 237, N-(2-(2-oxo-4-phenyl-5-(piperazine-1-carbonyl)-3-o-tolyl-2,3-dihydro-1H-imidazol-1-yl)ethyl)cyclohexanecarboxamide] and `Cc1ccccc1-n1c(-c2ccccc2)c(C(=O)N2CCNCC2)n(CCCNS(=O)(=O)C(C)C)c1=O` [Example 239, N-(3-(2-oxo-4-phenyl-5-(piperazine-1-carbonyl)-3-o-tolyl-2,3-dihydro-1H-imidazol-1-yl)propyl)propane-2-sulfonamide] cannot be ordered by IC50: over 1 µM for the first, over 1 µM for the second.

With `Cc1ccccc1-n1c(-c2ccccc2)c(C(=O)N2CCNCC2)n(CCCNC(=O)c2ccccc2Cl)c1=O` [Example 241, 2-Chloro-N-(3-(2-oxo-4-phenyl-5-(piperazine-1-carbonyl)-3-o-tolyl-2,3-dihydro-1H-imidazol-1-yl)propyl)benzamide] the IC50 was over 1 µM.
